Source: publication PMC5405074, “Receptor-Mediated Melanoma Targeting with Radiolabeled α-Melanocyte-Stimulating Hormone: Relevance of the Net Charge of the Ligand” (Frontiers in Endocrinology, 2017)
Where two headings read alike, the source gives them in different places.

Tests used:
MC1R (B16-F1 cells) = biological target: T1, MC1R (B16-F1 cells) (Mus musculus, UniProt Q01727); assay: Competition binding assay with [^125I]-NDP-MSH, mouse B16-F1 melanoma cells; conditions: B16-F1 cells, [^125I]-NDP-MSH competition, 15°C, 3 h; n = 3–20; ± SEM; ^c = P < 0.05 vs. DOTA-NAP-amide; read-out: Receptor-binding potency IC50
T1 construct: endogenous in cells; host or cells: mouse B16-F1 melanoma cells
T1 sequence (Q01727 whole entry): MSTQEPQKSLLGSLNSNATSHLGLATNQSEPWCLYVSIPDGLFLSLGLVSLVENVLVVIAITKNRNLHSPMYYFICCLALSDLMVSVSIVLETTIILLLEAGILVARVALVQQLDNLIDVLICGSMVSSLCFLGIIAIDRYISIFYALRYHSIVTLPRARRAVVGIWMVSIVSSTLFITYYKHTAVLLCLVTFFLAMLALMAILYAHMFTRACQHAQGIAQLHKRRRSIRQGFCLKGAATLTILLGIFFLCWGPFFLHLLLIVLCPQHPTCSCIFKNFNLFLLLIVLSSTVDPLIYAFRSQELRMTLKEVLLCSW
Protocol: (§1) Triplicates of 100-µL volumes of B16-F1 or HBL cell suspensions adjusted to 4 × 10^6/mL were incubated in 96-well U-bottom microplates (Falcon 3077). The binding medium consisted of MEM with Earle’s salts, 0.2% BSA, and 0.3 mM 1,10-phenanthroline. This binding medium was called mouse binding medium (MBM). Triplicates of competitor peptide solution (50 µL) yielding final concentrations ranging from 1 × 10^−6 to 1 × 10^−12 M were added. [^125I]NDP-MSH (50,000 cpm) in 50 µL was finally added to each well. The plates were incubated at 15°C for 3 h for B16-F1 cells and at 37°C for 2 h for HBL cells. The incubation was stopped by covering the plates with ice for 10 min. A cell harvester was used to collect cell-bound radioactivity on filters (Packard Unifilter-96 GF/B). The collected radioactivity was counted on a TopCount scintillation counter (Packard) after addition of 50 µL Microscint-20 scintillation cocktail (Perkin Elmer). The IC50 values were calculated with the Prism 6 software (GraphPad Software Inc., San Diego CA, USA).
(§2) The binding affinity of the peptides to MC1R was assessed by competition binding assays using [^125I]-NDP-MSH as radioligand and both murine B16-F1 and human HBL cells.

[1] = Biodistribution of ^111In-labeled peptides in B16-F1 melanoma-bearing mice; assay type: in vivo, mouse (B6D2F1); conditions: female, iv, total radioactivity, ^111In-labeled peptide, 185 kBq i.v., mean ± SEM of three experiments, n = 5 animals each
Protocol: About 5 × 10^5 B16-F1 cells were implanted subcutaneously to female B6D2F1 mice (C57BL/6 × DBA/2F1 hybrids; breeding pairs obtained from IFFA-CREDO, France). Seven days later, 185 kBq of ^111In-labeled ligand in 200 µL PBS/0.1% BSA were injected intravenously into the lateral tail vein of each mouse. Control mice were injected with a mixture of the tracer and 50 µg α-MSH to determine the non-specific uptake of radioligand. The animals were sacrificed 4, 24, and 48 h postinjection, dissected, and the tissues of interest collected, rinsed of excess blood, and weighed. The radioactivity emitted by each organ was measured in a γ-counter to determine the tissue uptake as percentage of the injected dose (ID) per gram of tissue. The total of injected radioactivity per animal was determined by extrapolation from the counts of a standard collected from the injection solution for each animal. Urine samples were collected at 10, 15, and 20 min and 4 h after injection and kept frozen at −80°C until use. Urine (1 vol) was mixed with methanol (2 vol) to precipitate proteins, and the supernatant was analyzed by RP-HPLC/γ-detection, as described in Ref. ([12]).
Results are expressed as means ± SEM, unless otherwise stated. The statistical evaluation of data was performed using the one- or two-way ANOVA test. When significant overall effects were obtained by ANOVA, multiple comparisons were made with the Bonferroni correction. P < 0.05 was considered statistically significant. The area under the curve (AUC) was calculated with the GraphPad Prism 6 software for the indicated period of time, using the mean tissue uptake value at each time point.

MC1R (HBL cells) = biological target: T2, MC1R (HBL cells) (Homo sapiens, UniProt Q01726); assay: Competition binding assay with [^125I]-NDP-MSH, human HBL melanoma cells; conditions: HBL cells, [^125I]-NDP-MSH competition, 37°C, 2 h; n = 3–20; ± SEM; ^c = P < 0.05 vs. DOTA-NAP-amide; read-out: Receptor-binding potency IC50
T2 construct: endogenous in cells; host or cells: human HBL melanoma cell line
T2 sequence (Q01726 whole entry): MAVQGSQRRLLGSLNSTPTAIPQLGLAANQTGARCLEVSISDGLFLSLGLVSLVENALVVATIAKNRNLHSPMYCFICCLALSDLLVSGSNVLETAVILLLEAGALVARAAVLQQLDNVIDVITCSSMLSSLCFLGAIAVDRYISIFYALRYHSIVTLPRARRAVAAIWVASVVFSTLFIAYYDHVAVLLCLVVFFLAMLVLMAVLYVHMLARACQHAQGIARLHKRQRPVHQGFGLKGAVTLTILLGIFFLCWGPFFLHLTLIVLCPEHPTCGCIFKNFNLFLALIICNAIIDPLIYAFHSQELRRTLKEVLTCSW
Protocol: as §1, §2

[2] = B6D2F1 (C57BL/6 × DBA/2F1 hybrids), mouse, blood, read-out: Blood uptake
[3] = B6D2F1 (C57BL/6 × DBA/2F1 hybrids), mouse, muscle, read-out: Muscle uptake
[4] = B6D2F1 (C57BL/6 × DBA/2F1 hybrids), mouse, tumor, read-out: Tumor uptake
[5] = B6D2F1, mouse, bone, read-out: Bone uptake
[6] = B6D2F1, mouse, heart, read-out: Heart uptake
[7] = B6D2F1, mouse, kidney, read-out: Kidney uptake
[8] = B6D2F1, mouse, liver, read-out: Liver uptake
[9] = B6D2F1, mouse, lung, read-out: Lung uptake
[10] = B6D2F1, mouse, pancreas, read-out: Pancreas uptake
[11] = B6D2F1, mouse, small intestines, read-out: Small intestines uptake
[12] = B6D2F1, mouse, spleen, read-out: Spleen uptake
[13] = B6D2F1, mouse, stomach, read-out: Stomach uptake

## CCCC[C@H](NC(C)=O)C(=O)N[C@@H](CC(=O)O)C(=O)N[C@@H](Cc1c[nH]cn1)C(=O)N[C@H](Cc1ccccc1)C(=O)N[C@@H](CCCNC(=N)N)C(=O)N[C@@H](Cc1c[nH]c2ccccc12)C(=O)NCC(=O)N[C@@H](CCCCNC(=O)CN1CCN(CC(=O)O)CCN(CC(=O)O)CCN(CC(=O)O)CC1)C(N)=O [DOTA-NAP-amide, [Ac-Nle^4,Asp^5,D-Phe^7,Lys^11(DOTA)]-α-MSH4-11, reference compound]
MC1R (B16-F1 cells)
  IC50: 1.38 ± 0.35 nM
[1]; [2]
  tissue uptake at 4 h: 0.09 ± 0.02 %ID/g
  tissue uptake at 24 h: 0.02 %ID/g
[1]; B6D2F1 (C57BL/6 × DBA/2F1 hybrids), mouse, bone, read-out: Bone uptake
  tissue uptake at 48 h: 0.05 ± 0.01 %ID/g
[1]; [3]
  tissue uptake at 4 h: 0.05 ± 0.01 %ID/g
  tissue uptake at 24 h: 0.02 %ID/g
  tissue uptake at 48 h: 0.01 %ID/g
[1]; [4]
  tissue uptake at 24 h: 2.32 ± 0.15 %ID/g
  tissue uptake at 48 h: 1.41 ± 0.12 %ID/g
[1]; [5]
  tissue uptake at 4 h: 0.11 ± 0.02 %ID/g
  tissue uptake at 24 h: 0.14 ± 0.02 %ID/g
[1]; [6]
  tissue uptake at 4 h: 0.05 ± 0.01 %ID/g
  tissue uptake at 24 h: 0.03 %ID/g
  tissue uptake at 48 h: 0.01 %ID/g
[1]; [7]
  tissue uptake at 24 h: 2.41 ± 0.2 %ID/g
  tissue uptake at 48 h: 1.55 ± 0.07 %ID/g
[1]; [8]
  tissue uptake at 4 h: 0.34 ± 0.05 %ID/g
  tissue uptake at 24 h: 0.31 ± 0.02 %ID/g
  tissue uptake at 48 h: 0.27 ± 0.07 %ID/g
[1]; [9]
  tissue uptake at 4 h: 0.08 ± 0.01 %ID/g
  tissue uptake at 24 h: 0.05 ± 0.01 %ID/g
  tissue uptake at 48 h: 0.03 %ID/g
[1]; [10]
  tissue uptake at 4 h: 0.04 %ID/g
  tissue uptake at 24 h: 0.03 %ID/g
  tissue uptake at 48 h: 0.02 %ID/g
[1]; [11]
  tissue uptake at 4 h: 0.07 ± 0.01 %ID/g
  tissue uptake at 24 h: 0.08 ± 0.01 %ID/g
  tissue uptake at 48 h: 0.05 ± 0.01 %ID/g
[1]; [12]
  tissue uptake at 4 h: 0.14 ± 0.01 %ID/g
  tissue uptake at 24 h: 0.11 ± 0.01 %ID/g
  tissue uptake at 48 h: 0.1 ± 0.01 %ID/g
[1]; [13]
  tissue uptake at 4 h: 0.09 ± 0.01 %ID/g
  tissue uptake at 24 h: 0.12 ± 0.02 %ID/g
  tissue uptake at 48 h: 0.11 ± 0.05 %ID/g
MC1R (HBL cells)
  IC50: 3.09 ± 1.11 nM
